Assay results reported in patent US10072011B2, “Substituted bridged urea analogs as sirtuin modulators” (GlaxoSmithKline Intellectual Property (No.2) Limited, priority 2014, dated 2018).
Read-outs that look alike come from different tables or passages of the source.

Target: T1, SIRT1 (Homo sapiens, UniProt Q96EB6)
T1 sequence (Q96EB6 1-747): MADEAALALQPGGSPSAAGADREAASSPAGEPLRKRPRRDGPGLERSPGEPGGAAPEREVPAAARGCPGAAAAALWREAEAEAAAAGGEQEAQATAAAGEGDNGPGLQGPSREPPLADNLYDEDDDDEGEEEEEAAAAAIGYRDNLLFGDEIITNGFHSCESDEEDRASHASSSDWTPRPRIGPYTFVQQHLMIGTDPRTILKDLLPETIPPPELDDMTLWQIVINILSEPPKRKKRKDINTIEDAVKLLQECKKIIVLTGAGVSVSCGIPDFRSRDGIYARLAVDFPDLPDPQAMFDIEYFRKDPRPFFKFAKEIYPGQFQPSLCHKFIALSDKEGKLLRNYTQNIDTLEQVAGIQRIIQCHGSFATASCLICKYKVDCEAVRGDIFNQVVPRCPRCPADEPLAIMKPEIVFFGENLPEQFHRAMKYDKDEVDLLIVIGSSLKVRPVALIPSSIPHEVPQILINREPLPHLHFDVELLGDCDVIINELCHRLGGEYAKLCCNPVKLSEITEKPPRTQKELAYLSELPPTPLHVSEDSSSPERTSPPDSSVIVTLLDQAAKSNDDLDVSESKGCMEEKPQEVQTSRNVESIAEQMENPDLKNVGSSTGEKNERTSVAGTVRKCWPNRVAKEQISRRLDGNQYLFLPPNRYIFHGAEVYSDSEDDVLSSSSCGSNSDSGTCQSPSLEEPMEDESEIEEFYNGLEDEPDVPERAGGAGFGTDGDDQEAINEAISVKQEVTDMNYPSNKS
Experiment: Trp mass spectrometry assay of SIRT1 activation (Ac-R-H-K-K(Ac)-W-NH2 peptide)
Format: biochemical
Settings: for Emax: 25 min, read-out: TRP MAX RESP (percent maximum fold activation)
Method in brief: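 N-terminal His-tagged human SIRT1, expressed in BL21(DE3) and purified, was incubated 25 min with an acetylated Trp peptide and NAD plus test compound at varying concentrations, then quenched with formic acid. OAADPR or deacetylated peptide was quantified by mass spectrometry versus compound-free control; EC1.5 is the concentration giving 50% activity increase, with percent maximum activation.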

[1] = Trp peptide 0.5 μM, 120 μM βNAD+, 10 nM SIRT1, 25 min at 25° C., relative to control (100%)
[2] = Trp peptide 0.5 μM, 120 μM βNAD+, 10 nM SIRT1, 25 min at 25° C.

| Compound | Emax [1] | TRP Activity (EC1.5, concentration of test compound that results in 150% activation of SIRT1) [2] | TRP MAX RESP (percent maximum fold activation) [1] | Emax |
| --- | --- | --- | --- | --- |
| CNC(=O)c1ccnc(NC(=O)N2c3nc(C(=O)N[C@H](C)C(F)(F)F)ccc3N3CC[C@H]2C3)c1 [Example 151, (4S)—N5-(4-(methylcarbamoyl)pyridin-2-yl)-N7-((R)-1,1,1-trifluoropropan-2-yl)-3,4-dihydro-1,4-methanopyrido[2,3-b][1,4]diazepine-5,7(2H)-dicarboxamide] | > 150% | A (EC1.5<1 μM) |  |  |
| CC(C)(CO)CNC(=O)c1ccc2c(n1)N(C(=O)Nc1ccccn1)[C@H]1CCN2C1 [Example 41, (4S)—N7-(3-hydroxy-2,2-dimethylpropyl)-N5-(pyridin-2-yl)-3,4-dihydro-1,4-methanopyrido[2,3-b][1,4]diazepine-5,7(2H)-dicarboxamide] | > 150% | B (EC1.5 1-25 μM) |  |  |
| C[C@@H](NC(=O)c1nc2c(cc1Cl)N1CC[C@@H](C1)N2C(=O)Nc1cc(-c2cnco2)ccn1)C(F)(F)F [Example 282, (4S)-8-chloro-N5-(4-(oxazol-5-yl)pyridin-2-yl)-N7-((R)-1,1,1-trifluoropropan-2-yl)-3,4-dihydro-1,4-methanopyrido[2,3-b][1,4]diazepine-5,7(2H)-dicarboxamide] | > 150% | A (EC1.5<1 μM) |  |  |
| C[C@@H](NC(=O)c1ccc2c(n1)N(C(=O)Nc1ccccn1)[C@H]1CCN2C1)C(F)(F)F [Example 19, (4S)—N5-(pyridin-2-yl)-N7-((R)-1,1,1-trifluoropropan-2-yl)-3,4-dihydro-1,4-methanopyrido[2,3-b][1,4]diazepine-5,7(2H)-dicarboxamide] | > 150% | A (EC1.5<1 μM) |  |  |
| O=C(NCc1cscn1)c1ccc2c(n1)N(C(=O)Nc1cc(OC[C@H](O)CO)ccn1)[C@H]1CCN2C1 [Example 199, (4S)—N5-(4-((R)-2,3-dihydroxypropoxy)pyridin-2-yl)-N7-(thiazol-4-ylmethyl)-3,4-dihydro-1,4-methanopyrido[2,3-b][1,4]diazepine-5,7(2H)-dicarboxamide] | > 150% | B (EC1.5 1-25 μM) |  |  |
| C[C@@H](NC(=O)c1ccc2c(n1)N(C(=O)Nc1nccc(OC[C@H](O)CO)n1)[C@H]1CCN2C1)C(F)(F)F [Example 244, (4S)—N5-(4-((R)-2,3-dihydroxypropoxy)pyrimidin-2-yl)-N7-((R)-1,1,1-trifluoropropan-2-yl)-3,4-dihydro-1,4-methanopyrido[2,3-b][1,4]diazepine-5,7(2H)-dicarboxamide] | > 150% | A (EC1.5<1 μM) |  |  |
| Cc1nc(NC(=O)N2c3nc(C(=O)NC4CC4)ccc3N3CC[C@H]2C3)co1 [Example 255, (4S)—N7-cyclopropyl-N5-(2-methyloxazol-4-yl)-3,4-dihydro-1,4-methanopyrido[2,3-b][1,4]diazepine-5,7(2H)-dicarboxamide] | > 150% | B (EC1.5 1-25 μM) |  |  |
| C[C@@H](NC(=O)c1ccc2c(n1)N(C(=O)Nc1ncc3[nH]cnc3n1)[C@H]1CCN2C1)C(F)(F)F [Example 166, (4S)—N5-(7H-purin-2-yl)-N7-((R)-1,1,1-trifluoropropan-2-yl)-3,4-dihydro-1,4-methanopyrido[2,3-b][1,4]diazepine-5,7(2H)-dicarboxamide] | > 150% | A (EC1.5<1 μM) |  |  |
| O=C(NCCCO)c1ccc2c(n1)N(C(=O)Nc1ccccn1)[C@H]1CCN2C1 [Example 218, (4S)—N7-(3-hydroxypropyl)-N5-(pyridin-2-yl)-3,4-dihydro-1,4-methanopyrido[2,3-b][1,4]diazepine-5,7(2H)-dicarboxamide] | > 150% | B (EC1.5 1-25 μM) |  |  |
| NC(CNC(=O)c1ccc2c(n1)N(C(=O)Nc1cc(OC[C@H](O)CO)ccn1)[C@H]1CCN2C1)C(F)(F)F (single isomer, unassigned) [Example 317] |  | B (EC1.5 1-25 μM) | B (Fold Activation<150%) |  |
| O=C(NCC(F)F)c1ccc2c(n1)N(C(=O)Nc1ccc(F)cn1)[C@H]1CCN2C1 [Example 69, (4S)—N7-(2,2-difluoroethyl)-N5-(5-fluoropyridin-2-yl)-3,4-dihydro-1,4-methanopyrido[2,3-b][1,4]diazepine-5,7(2H)-dicarboxamide] |  | A (EC1.5<1 μM) |  | > 150% |
| Cc1ccc2c(NC(=O)N3c4nc(C(=O)N[C@H](C)C(F)(F)F)cc(C)c4N4CC[C@H]3C4)n[nH]c2n1 [Example 289, (4S)-9-methyl-N5-(6-methyl-1H-pyrazolo[3,4-b]pyridin-3-yl)-N7-((R)-1,1,1-trifluoropropan-2-yl)-3,4-dihydro-1,4-methanopyrido[2,3-b][1,4]diazepine-5,7(2H)-dicarboxamide] | > 150% | A (EC1.5<1 μM) |  |  |
| C[C@@H](NC(=O)c1ccc2c(n1)N(C(=O)Nc1ncco1)[C@H]1CCN2C1)C(F)(F)F [Example 75, (4S)—N5-(oxazol-2-yl)-N7-((R)-1,1,1-trifluoropropan-2-yl)-3,4-dihydro-1,4-methanopyrido[2,3-b][1,4]diazepine-5,7(2H)-dicarboxamide] | > 150% | A (EC1.5<1 μM) |  |  |
| Cc1ccc(NC(=O)N2c3nc(C(=O)N[C@H](C)C(F)(F)F)ccc3N3CC[C@H]2C3)nc1 [Example 56, (4S)—N5-(5-methylpyridin-2-yl)-N7-((R)-1,1,1-trifluoropropan-2-yl)-3,4-dihydro-1,4-methanopyrido[2,3-b][1,4]diazepine-5,7(2H)-dicarboxamide] | > 150% | A (EC1.5<1 μM) |  |  |
| O=C(N[C@@H](CO)C(F)(F)F)c1ccc2c(n1)N(C(=O)Nc1cccnc1)[C@H]1CCN2C1 [Example 224, (4S)—N5-(pyridin-3-yl)-N7-((S)-1,1,1-trifluoro-3-hydroxypropan-2-yl)-3,4-dihydro-1,4-methanopyrido[2,3-b][1,4]diazepine-5,7(2H)-dicarboxamide] | > 150% | B (EC1.5 1-25 μM) |  |  |
| CC(F)(F)CNC(=O)c1ccc2c(n1)N(C(=O)Nc1cc(OC[C@H](O)CO)ccn1)[C@H]1CCN2C1 [Example 183, (4S)—N7-(2,2-difluoropropyl)-N5-(4-((R)-2,3-dihydroxypropoxy)pyridin-2-yl)-3,4-dihydro-1,4-methanopyrido[2,3-b][1,4]diazepine-5,7(2H)-dicarboxamide] | > 150% | B (EC1.5 1-25 μM) |  |  |
| C[C@@H](NC(=O)c1ccc2c(n1)N(C(=O)Nc1nccs1)[C@H]1CCN2C1)C(F)(F)F [Example 191, (4S)—N5-(thiazol-2-yl)-N7-((R)-1,1,1-trifluoropropan-2-yl)-3,4-dihydro-1,4-methanopyrido[2,3-b][1,4]diazepine-5,7(2H)-dicarboxamide] | > 150% | A (EC1.5<1 μM) |  |  |
| Cc1cc(F)cnc1NC(=O)N1c2nc(C(=O)N[C@H](C)C(F)(F)F)ccc2N2CC[C@H]1C2 [Example 57, (4S)—N5-(5-fluoro-3-methylpyridin-2-yl)-N7-((R)-1,1,1-trifluoropropan-2-yl)-3,4-dihydro-1,4-methanopyrido[2,3-b][1,4]diazepine-5,7(2H)-dicarboxamide] | > 150% | B (EC1.5 1-25 μM) |  |  |
| COCC(NC(=O)c1ccc2c(n1)N(C(=O)Nc1ccccn1)[C@H]1CCN2C1)C1CC1 (single isomer, unassigned) [Example 59] | > 150% | A (EC1.5<1 μM) |  |  |
| O=C(NCC(F)(F)F)c1ccc2c(n1)N(C(=O)Nc1cc3c(cn1)OCCC3)[C@H]1CCN2C1 [Example 133, (4S)—N5-(3,4-dihydro-2H-pyrano[2,3-c]pyridin-6-yl)-N7-(2,2,2-trifluoroethyl)-3,4-dihydro-1,4-methanopyrido[2,3-b][1,4]diazepine-5,7(2H)-dicarboxamide] | > 150% | A (EC1.5<1 μM) |  |  |
